Measured values: the OPERA property sets (Mansouri et al. 2018)

Conditions: for log10 BCF / log10 biotransformation half-life (days): fish

SMILES | melting point [°C] | boiling point [°C] | also measured
C[C@@H]1CC2=CC(=O)CC[C@]2(C)[C@H]2CC[C@@]3(C)[C@@H](CC[C@]3(C)O)[C@H]12 | 146 |  | 
CCCCCCCC/C=C\CCCCCCCC(=O)O |  | 360 | log10 vapour pressure (mmHg): -5.85; ready biodegradability: readily biodegradable
O=P(N1CC1)(N1CC1)N1CC1 | 41 |  | 
Cc1ccc(S(=O)(=O)Cl)cc1 | 71 |  | ready biodegradability: readily biodegradable
O=Cc1ccc([N+](=O)[O-])cc1[N+](=O)[O-] | 72 |  | 
CC(C)=CCC/C(C)=C/C=C/C(C)=C/C=C/C(C)=C/C=C/C=C(C)/C=C/C=C(C)/C=C/C1C(C)=CCCC1(C)C (centres undefined) | 140 |  | 
CCN1CCN(c2cc3c(cc2F)c(=O)c(C(=O)O)cn3C2CC2)CC1 | 220 |  | 
CCOC=C(C#N)C#N | 66 |  | 
CCC(CC)c1ccccn1 |  | 195 | 
CCc1cc(C)cc(CC)c1 | -74.1 | 205 | log10 vapour pressure (mmHg): 0.0017
CCCCCCCCCCOC(=O)CCCCCCCCC | 9.7 |  | 
O=C(CO)[C@@H](O)[C@H](O)[C@@H](O)CO | 165 |  | 
O=C(O)c1cc(I)c(O)c(I)c1 | 237 |  | 
CN(C)C=Nc1ccccc1 |  | 127 | 
CC(=O)Cl | -113 | 50.7 | log10 vapour pressure (mmHg): 2.46
Cc1ccc[n+]([O-])c1 | 39 |  | 
O=C(CCC(=O)OCc1ccccc1)OCc1ccccc1 | 49.5 |  | 
O=C(O)c1cc[n+]([O-])cc1 | 270 |  | 
FC(F)(Br)Br | -110 | 25 | log10 vapour pressure (mmHg): 2.91
CC(C)(c1ccccc1)c1ccc(O)cc1 | 75 | 335 | log10 vapour pressure (mmHg): -4.23; ready biodegradability: not readily biodegradable
C=CC[C@H](C)O |  | 116 | 
O=[N+]([O-])c1ccc(F)cc1O | 36 |  | log10 Henry constant (atm·m³/mol): -4.71; log10 vapour pressure (mmHg): -1.64
CCOC(=O)C1(S(=O)(=O)c2ccc(C)cc2)CCC1 | 53.5 |  | 
Cc1cccc(C)c1O | 45.7 | 201 | log10 Henry constant (atm·m³/mol): -5.18; log10 vapour pressure (mmHg): -0.767; ready biodegradability: not readily biodegradable

SMILES | melting point [°C] | boiling point [°C] | also measured
Clc1cc(Cl)cc(-c2ccccc2Cl)c1 |  |  | log10 Henry constant (atm·m³/mol): -3.7
c1ccc(-c2ccc3ccccc3c2)cc1 | 104 | 346 | log10 vapour pressure (mmHg): -4.46
NNc1ccccc1 | 19.6 | 244 | log10 vapour pressure (mmHg): -1.58
O=C(Cl)c1ccccc1F | 4 | 206 | 
CCOc1cc(OCC)cc(OCC)c1 | 43.5 |  | 
CCC(Br)=CBr | -49.5 | 150 | 
CCC1CCc2ccccc2C1 (centres undefined) | -42.8 | 235 | 
O=C(O)Cc1ccc2ccccc2c1 | 142 |  | 
C1C2CC3CC1CC(C2)C3 | 205 |  | log10 biodegradation half-life (days): 3
OCC1CCC(CO)O1 (centres undefined) |  | 265 | 
Nc1nc(N)c2nc(-c3ccccc3)c(N)nc2n1 | 316 |  | 
CC(CO)c1ccccc1 (centres undefined) | -13 |  | log10 vapour pressure (mmHg): -1.72
CCC(C)(C)c1ccc(O)c(C(C)(C)CC)c1 | 25 |  | ready biodegradability: not readily biodegradable
CC(C)OC(=O)C1(S(=O)(=O)c2ccc([N+](=O)[O-])cc2)CCCCCC1 | 83.5 |  | 
COc1ccc2c3c1O[C@H]1[C@@H](O)C=C[C@H]4[C@@H](C2)N(C)CC[C@@]341.Cl | 280 |  | 
CC(=O)NS(=O)(=O)c1ccc(N)cc1 | 183 |  | 
Fc1cccc(F)n1 |  | 125 | 
CC1CC(C)C(C)C1 (centres undefined) | -132 | 117 | 
O=C(O)C1=CCCCC1 | 38 | 241 | 
OCc1ccc2ccccc2c1 | 81.3 |  | 
CC(=O)OC(C)C#N (centres undefined) | -75 | 172 | 
Nc1c(Cl)c(Cl)c(Cl)c(Cl)c1Cl | 235 |  | log10 Koc (L/kg): 4.62; ready biodegradability: not readily biodegradable; log10 BCF: 2.71
Cc1cccc(C)c1NC(=O)CN(CC(=O)O)CC(=O)O | 202 |  | 
C=C1C(=O)O[C@@H]2C[C@@]3(C)CCC[C@H](C)C3=C[C@H]12 | 76 | 275 | 

SMILES | melting point [°C] | boiling point [°C] | also measured
Brc1c2ccccc2c(Br)c2ccccc12 | 226 |  | 
O=C(O)CCc1c[nH]c2ccccc12 | 134 |  | 
FC(F)(F)c1nc2c(Cl)c(Cl)ccc2[nH]1 | 214 |  | 
CCCCC(CC)CN1C(=O)C2C3C=CC(C3)C2C1=O (centres undefined) |  |  | log10 vapour pressure (mmHg): -4.74
CCCCCCCOC(=O)CCC | -57.5 | 226 | 
Nc1ccc(Cc2ccc(N)c(Cl)c2)cc1Cl | 110 | 379 | ready biodegradability: not readily biodegradable; log10 BCF: 2.24; log10 biotransformation half-life (days): -0.15
Oc1ccc(Br)cc1 |  |  | log10 Koc (L/kg): 2.41; ready biodegradability: not readily biodegradable; log10 BCF: 1.17
O=C(c1ccccc1)c1ccc(Br)cc1 | 82.5 | 350 | 
CC1=NNC(=O)C1 | 221 |  | 
CCCCCCCCCCCCCCCC | 18.1 | 287 | log10 biodegradation half-life (days): 1.23; log10 vapour pressure (mmHg): -2.84; ready biodegradability: not readily biodegradable; log10 BCF: 3.7
C=C[C@@H]1C2=CCOC(=O)C2=CO[C@H]1O[C@@H]1O[C@H](CO)[C@@H](O)[C@H](O)[C@H]1O | 191 |  | 
C[C@@H](O)C(=O)c1ccccc1 |  | 251 | 
CC(c1ccccc1)C1CCCCC1 (centres undefined) |  | 265 | 
C=C(CC)C(C)C |  | 89 | 
CCCCC(CC)COC(=O)Cl (centres undefined) |  | 207 | log10 vapour pressure (mmHg): -0.775
COc1cc(C=CCO)ccc1O | 74 |  | 
CCCCCCCCNC(C)C(O)c1ccc(SC(C)C)cc1 (centres undefined) | 62.5 |  | 
c1ccc(OP(Oc2ccccc2)Oc2ccccc2)cc1 | 25 | 360 | 
Cc1c(F)c(F)c(F)c(F)c1F | -29.8 | 118 | 
CC(=O)Nc1ccc(CC(=O)O)cc1 | 173 |  | 
Cc1cc(C)c(O)cc1C | 72 | 232 | log10 vapour pressure (mmHg): -2.17
CC(C)(C)c1ccc2ccccc2c1 | -4 | 276 | 
N#CC#N | -27.9 |  | log10 vapour pressure (mmHg): 3.63
NC(=S)Nc1ccccc1Cl | 146 |  | 

SMILES | melting point [°C] | boiling point [°C] | also measured
CCOC(=O)Nc1ccccc1 | 53 | 238 | log10 Koc (L/kg): 1.82
CCCCOC(=O)CCCCCCCCC(=O)OCCCC | -10 | 344 | log10 vapour pressure (mmHg): -5.33
CC(Oc1ccc2ccccc2c1)C(O)=Nc1ccccc1 (centres undefined) | 128 |  | log10 vapour pressure (mmHg): -10.7
CCCCCCCCCCCCCCCCCCC(C)c1ccccc1 (centres undefined) | 29 |  | 
NCCOB(c1ccccc1)c1ccccc1 | 193 |  | 
C/C=C/CCCO |  | 159 | 
COC(C)C |  | 30.7 | log10 vapour pressure (mmHg): 2.78
Fc1ccccc1C(F)(F)F |  | 114 | log10 vapour pressure (mmHg): 1.58
C[Se]C |  | 55 | log10 Henry constant (atm·m³/mol): -2.76; log10 vapour pressure (mmHg): 2.38
COc1ccc([N+](=O)[O-])c(OC)c1 | 76.5 |  | 
CCN(CC)C(=O)c1ccccc1C(=O)N(CC)CC | 36 |  | 
c1cc2ccc3cccc4ccc(c1)c2c34 | 151 | 404 | log10 Henry constant (atm·m³/mol): -4.92; log10 Koa: 8.8; log10 Koc (L/kg): 4.9; log10 biodegradation half-life (days): 2.37; log10 vapour pressure (mmHg): -5.35; log10 BCF: 3.18; log10 biotransformation half-life (days): 0.32
Cc1cc(NS(=O)(=O)c2ccc(N)cc2)sn1 | 192 |  | 
ClCI |  | 109 | log10 Henry constant (atm·m³/mol): -3.06
ClCCN(CCCl)c1ccc2ccccc2c1 | 55 |  | 
C(=C(c1ccccc1)c1ccccc1)c1ccccc1 | 72.5 |  | 
CCN(CC)CC#CCOC(=O)C(O)(c1ccccc1)C1CCCCC1.Cl (centres undefined) | 130 |  | 
N#CC1(N=NC2(C#N)CCCCC2)CCCCC1 | 116 |  | 
CC1=CC(=O)c2ccccc2C1=O | 107 |  | 
c1ccc([C@@H]2CCCNC2)cc1 | 14.5 | 257 | 
CCCBr | -110 | 71.1 | log10 vapour pressure (mmHg): 2.04
Brc1cc(Br)c(Br)c(Br)c1 | 99.5 | 329 | 
CC(C)(C)NC(=O)[C@H]1CC[C@H]2[C@@H]3CC[C@H]4NC(=O)C=C[C@]4(C)[C@H]3CC[C@]12C | 253 |  | 
C=C(C)CCC=C(C)C | -70 | 143 | 

SMILES | melting point [°C] | boiling point [°C] | also measured
C=C(C)c1ccc(Cl)cc1 |  |  | ready biodegradability: not readily biodegradable; log10 BCF: 2.84; log10 biotransformation half-life (days): 1.3
CC(=O)c1ccc(C)c(C)c1 | -3 | 246 | 
C=C(C)CCC(=C)C | -75.6 | 114 | 
O=C(Cl)CCc1ccccc1 | -2 |  | 
O=C([O-])c1ccccc1.[NH4+] | 194 |  | 
Nc1ccc(S(=O)(=O)[O][Na])c2ccccc12 |  |  | log10 BCF: 0.78
CCCCOB(OCCCC)OCCCC |  | 234 | log10 vapour pressure (mmHg): -0.279
O=C(O)CC(Br)C(=O)O (centres undefined) | 161 |  | 
O=c1ccn([C@@H]2C[C@H](F)[C@@H](CO)O2)c(=O)[nH]1 | 186 |  | 
C=C(CC(C)(C)c1ccccc1)c1ccccc1 |  |  | ready biodegradability: not readily biodegradable
CC(C)(Br)C(=O)O | 48.5 | 199 | 
CCCCCCCCl | -69.5 | 159 | log10 vapour pressure (mmHg): 0.451
CCCC=CCCCCC |  | 171 | 
CN1[C@@H](CC(=O)c2ccccc2)CCC[C@H]1C[C@H](O)c1ccccc1 | 130 |  | 
CCOC(=O)C(=Cc1ccccc1)C(=O)OCC | 32 |  | 
C1CCc2nnnn2CC1 | 59.5 |  | 
COc1cccc(O)c1O | 42.8 |  | 
ClCCOCOCCCl | -32 | 218 | log10 Koc (L/kg): 1.79; log10 vapour pressure (mmHg): -0.879
CCCCCCCCC(=O)O | 12.3 | 254 | log10 vapour pressure (mmHg): -2.78; ready biodegradability: readily biodegradable
Clc1ccc(-c2c(Cl)ccc(Cl)c2Cl)cc1Cl |  |  | log10 Koa: 9.06; log10 biotransformation half-life (days): 2.63
C[C@]12C[C@@H](O)[C@H]3[C@@H](CC[C@]4(O)C[C@@H](O)C[C@@H](O)[C@]34CO)[C@@]1(O)CC[C@@H]2C1=CC(=O)OC1 | 236 |  | 
CCOC(=O)CC(C)C | -99.3 | 135 | log10 vapour pressure (mmHg): 0.919
CCCCOC(=O)C(=O)[C@H]1[C@H](C)C[C@H]2[C@@H]3C[C@H](F)C4=CC(=O)C=C[C@]4(C)[C@H]3[C@@H](O)C[C@@]21C | 195 |  | 
